# Measurements reported in patent publication US8058233B2, “Modification of feeding behavior using PYY and GLP-1” (Oregon Health and Science University, priority 2002, dated 2011).
# No end group written: not given here.
# Experiments:
# [1] = system: POMC neurons; experiment: Whole cell recordings from fluorescent POMC-EGFP neurons in ARC slices (Example 2); format: cell-based, mouse
# [2] = system: non-fluorescent ARC neurons; experiment: Recordings from adjacent non-fluorescent ARC neurons; format: cell-based, mouse; conditions: 13 cells tested
# [3] = Co-administration of PYY3-36 and GLP-1 by intravenous infusion in humans, free buffet meal; format: in vivo, human
# Text: 10 healthy volunteers (4 men and 6 women) having a mean age of 24.7 (±0.8) years and a mean BMI of 22.7 (±0.6) kg/m^2 were recruited. The volunteers were asked to fast and to drink only water from 9 pm on the night preceding all study days. Each volunteer attended for four study days. The volunteers arrived at 9.30 am and the venflons were inserted.
# The study was double blinded. GLP-1 is i.e. GLP-1 (7-36) amide
# [4] = Intracerebroventricular GLP-1 in rats; format: in vivo, rat
# Text: This effect is blocked by the specific GLP-1 receptor antagonist, exendin 9-39. GLP-1 receptors are found in the brainstem, arcuate nucleus and PVN. Following ICV GLP-1 administration, c-fos is expressed in the arcuate nucleus and PVN.
# [5] = 1-hour food intake after IP GLP-1 with intra-arcuate exendin 9-39 in non-fasted rats; format: in vivo, rat; conditions: GLP-1 25 nmol/kg, exendin 9-39 20 nmoles/kg, FIG. 11
# Method: GLP-1 i.e. GLP-1 (7-36) amide (25 nmol/kg) or saline (control) was administered parenterally to non-fasted rats prior to the onset of the dark phase. Exendin 9-39 (20 nmoles/kg) or saline (control) injected into the arcuate nucleus of non-fasted rats. Food intake one hour later was measured.
substance,measurement,setting,value
"leptin: leptin, hormone applied to POMC cells in slice preparations",decrease in frequency of GABAergic IPSCs in POMC cells,"[1]; 100 nM, in 5 out of 15 cells",25%
same,"depolarization of POMC cells, mean±SEM","[1]; 100 nM, n=45",9.7±1.2 mV
same,time to depolarization of POMC cells,[1]; 0.1-100 nM,2 to 10 min
same,depolarization of POMC cells,"[1]; 0.1-100 nM, 72 of 77 POMC cells",3-30 mV
same,effect on membrane potential of non-fluorescent ARC cells,[2],"had no effect on 5 of 13 adjacent non-fluorescent cells tested (FIG. 3e), while it hyperpolarized 5 (FIG. 3f) and depolarized 3 other non-POMC neurons"
neuropeptide Y [NPY],"hyperpolarization of POMC neurons, average",[1]; n=3,9±6 mV
GLP-1 (7-36) amide (HAEGTFTSDVSSYLEGGAAKEFIAWLVKGR-NH2),"Food intake from free buffet meal, mean","[3]; IV infusion 0.4 pmol/kg/min for 120 minutes (90 minutes pre-meal), 10 volunteers, saline 997",950 kcal
same,% reduction from saline,"[3]; IV infusion 0.4 pmol/kg/min for 120 minutes, free buffet meal",5%
same,food intake after ICV administration,[4],potently inhibits food intake
same,effect of IP GLP-1 on 1-hour food intake with exendin 9-39 in the arcuate nucleus,[5],not influenced by the presence of concomitant exendin 9-39
exendin 9-39,effect on inhibition of food intake by ICV GLP-1,[4],blocked
CTAP,effect on the current induced by Met-Enk in POMC cells,"[1]; CTAP 1 μM, Met-Enk 30 μM, n=3",completely prevented
D-Trp^8-γMSH,increase in frequency of GABAergic IPSCs in POMC neurons,"[1]; 7 nM, 3 of 4 POMC neurons",280±90%
same,hyperpolarization of POMC neurons,"[1]; 7 nM, 9 of 15 POMC neurons",−5.5±2.4 mV
met-enkephalin,time to hyperpolarization of POMC cells,[1]; 30 μM,35 to 40 s
same,hyperpolarization of the membrane potential of POMC cells,"[1]; 30 μM, n=10, reversible",10-20 mV
